In ChEMBL document CHEMBL1132595, “Acquisition of high-affinity, SH2-targeted ligands via a spatially focused library” (J Med Chem, 1999):

How the values were obtained:
[1] = Dissociation constant for binding to SH2 domain of Phosphatidylinositol 3-kinase p85 subunit
[2] = Dissociation constant for binding to SH2 domain of Phospholipase C gamma
[3] = biological target: Growth factor receptor-bound protein 2 (Homo sapiens, UniProt P62993); assay: Dissociation constant for binding to SH2 domain of Growth factor receptor bound protein 2, Grb2
Sequence of Growth factor receptor-bound protein 2 (P62993 whole entry, the tested form may be a part): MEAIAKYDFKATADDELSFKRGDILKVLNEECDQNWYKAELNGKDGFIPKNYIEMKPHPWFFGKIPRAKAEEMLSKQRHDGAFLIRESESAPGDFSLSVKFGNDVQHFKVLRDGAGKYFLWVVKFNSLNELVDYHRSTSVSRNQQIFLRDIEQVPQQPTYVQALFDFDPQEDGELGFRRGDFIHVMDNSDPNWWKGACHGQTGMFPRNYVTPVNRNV

[4] = biological target: Tyrosine-protein kinase Lck (Homo sapiens, UniProt P06239); assay: Dissociation constant for binding to SH2 domain of p56 lck tyrosine kinase
Sequence of Tyrosine-protein kinase Lck (P06239 whole entry, the tested form may be a part): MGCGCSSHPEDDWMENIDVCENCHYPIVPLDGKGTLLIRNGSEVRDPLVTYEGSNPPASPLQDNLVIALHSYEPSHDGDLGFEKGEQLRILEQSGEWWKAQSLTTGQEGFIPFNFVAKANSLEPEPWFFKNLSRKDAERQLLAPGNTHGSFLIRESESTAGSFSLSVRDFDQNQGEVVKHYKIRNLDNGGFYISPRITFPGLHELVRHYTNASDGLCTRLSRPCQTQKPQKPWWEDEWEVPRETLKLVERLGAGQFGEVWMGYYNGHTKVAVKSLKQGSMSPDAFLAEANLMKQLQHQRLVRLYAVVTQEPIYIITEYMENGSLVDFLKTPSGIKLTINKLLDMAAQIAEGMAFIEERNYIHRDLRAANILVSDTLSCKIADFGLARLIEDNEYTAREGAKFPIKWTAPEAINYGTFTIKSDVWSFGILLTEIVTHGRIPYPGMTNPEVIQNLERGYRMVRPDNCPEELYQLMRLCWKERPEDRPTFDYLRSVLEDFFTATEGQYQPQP

[5] = biological target: Tyrosine-protein kinase Fyn (Homo sapiens, UniProt P06241); assay: Dissociation constant for binding to SH2 domain of Fyn protein kinase
Sequence of Tyrosine-protein kinase Fyn (P06241 whole entry, the tested form may be a part): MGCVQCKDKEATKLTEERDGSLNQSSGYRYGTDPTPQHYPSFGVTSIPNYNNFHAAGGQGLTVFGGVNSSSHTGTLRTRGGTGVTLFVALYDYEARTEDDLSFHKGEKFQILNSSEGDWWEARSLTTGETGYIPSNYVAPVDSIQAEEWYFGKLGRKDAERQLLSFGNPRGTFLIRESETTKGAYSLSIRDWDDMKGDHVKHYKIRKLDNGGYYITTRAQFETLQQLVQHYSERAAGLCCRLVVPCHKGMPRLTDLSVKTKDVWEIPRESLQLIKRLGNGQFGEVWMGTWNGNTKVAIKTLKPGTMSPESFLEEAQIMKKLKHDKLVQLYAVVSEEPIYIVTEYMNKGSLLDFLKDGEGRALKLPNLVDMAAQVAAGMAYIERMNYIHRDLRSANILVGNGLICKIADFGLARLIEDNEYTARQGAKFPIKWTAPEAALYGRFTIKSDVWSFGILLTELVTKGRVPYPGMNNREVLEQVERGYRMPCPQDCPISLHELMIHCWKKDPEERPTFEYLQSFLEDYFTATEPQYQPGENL

SMILES	Kd [1] [nM]	Kd [2] [nM]	Kd [3] [nM]	Kd [4] [nM]	Kd [5] [nM]
O=C(O)Cc1cc(=O)oc2cc(O)ccc12	9300	4900	11300	35	150
O=C(O)c1ccsc1	–	–	–	260	700
O=C(O)c1cc(C(=O)O)cc(S(=O)(=O)O)c1	–	–	–	220	60
COc1ccc2c(CC(=O)O)cc(=O)oc2c1	–	–	–	2500	–
COc1cc(Br)c(C(=O)O)cc1OC	–	–	–	240	500
O=C(O)CNC(=O)c1ccc([N+](=O)[O-])cc1	–	–	–	290	240
